Results reported in patent US12655116B2, “Substituted isophthalic acid diamides” (Bayer Aktiengesellschaft, priority 2020, dated 2026).

Experiments:
VIOTR [1] = experiment: Post-emergence herbicidal action against VIOTR; type: in vivo, Viola tricolor
Experimental: (§1) Seeds of monocotyledonous and dicotyledonous weed and crop plants are laid out in sandy loam soil in wood-fiber pots, covered with soil and cultivated in a greenhouse under good growth conditions. 2 to 3 weeks after sowing, the test plants are treated at the one-leaf stage. The compounds of the invention, formulated in the form of wettable powders (WP) or as emulsion concentrates (EC), are then sprayed onto the green parts of the plants in the form of an aqueous suspension or emulsion at a water application rate equivalent to 600 to 800 l/ha, with addition of 0.2% wetting agent. After the test plants have been left to stand in the greenhouse under optimal growth conditions for about 3 weeks, the action of the preparations is assessed visually in comparison to untreated controls (herbicidal action in percent (%): 100% activity=the plants have died, 0% activity=like control plants). […] The tables below illustrate, in an illustrative manner, the post-emergence herbicidal action of the compounds of the invention, the herbicidal activity being stated in percent.

AMARE [2] = experiment: Post-emergence herbicidal action against AMARE; type: in vivo, Amaranthus retroflexus; details: 20 g/ha, visual assessment about 3 weeks after treatment, 100% = plants have died, 0% = like control plants
Experimental: as §1

VIOTR [3] = experiment: Pre-emergence herbicidal action against VIOTR; type: in vivo, Viola tricolor
From the text: (§2) Seeds of monocotyledonous and dicotyledonous weed plants and crop plants are laid out in sandy loam soil in wood-fiber pots and covered with soil. The compounds of the invention, formulated in the form of wettable powders (WP) or as emulsion concentrates (EC), are then applied to the surface of the covering soil in the form of an aqueous suspension or emulsion at a water application rate equivalent to 600 to 800 l/ha, with addition of 0.2% wetting agent. After the treatment, the pots are placed in a greenhouse and kept under good growth conditions for the trial plants. The damage to the test plants is scored visually after a test period of 3 weeks by comparison with untreated controls (herbicidal activity in percent (%): 100% activity=the plants have died, 0% activity=like control plants). […] The tables below illustrate, in an illustrative manner, the post-emergence herbicidal action of the compounds of the invention, the herbicidal activity being stated in percent.

AMARE [4] = experiment: Pre-emergence herbicidal action against AMARE; type: in vivo, Amaranthus retroflexus
From the text: as §2

ABUTH [5] = experiment: Pre-emergence herbicidal action against ABUTH; type: in vivo, Abutilon theophrasti; details: for Pre-emergence action against ABUTH (herbicidal activity in percent): dosage 20 g/ha, scored visually after 3 weeks vs untreated controls, 100% = plants have died, 0% = like control plants
From the text: as §2

MATIN = experiment: Pre-emergence herbicidal action against MATIN; type: in vivo, Matricaria inodora
From the text: as §2

DIGSA = experiment: Pre-emergence herbicidal action against DIGSA; type: in vivo, Digitaria sanguinalis
From the text: as §2

ECHCG [6] = experiment: Post-emergence herbicidal action against ECHCG; type: in vivo, Echinochloa crus-galli
Experimental: as §1

ALOMY = experiment: Pre-emergence herbicidal action against ALOMY; type: in vivo, Alopecurus myosuroides; details: 80 g/ha, pre-emergence, scored visually after 3 weeks vs untreated controls (100% = plants have died, 0% = like control plants)
From the text: as §2

ECHCG [7] = experiment: Pre-emergence herbicidal action against ECHCG; type: in vivo, Echinochloa crus-galli; details: 80 g/ha
From the text: as §2

SETVI [8] = experiment: Pre-emergence herbicidal action against SETVI; type: in vivo, Setaria viridis
From the text: as §2

PHBPU = experiment: Post-emergence herbicidal action against PHBPU; type: in vivo, Pharbitis purpurea; details: dosage 20 g/ha
Experimental: as §1

ABUTH [9] = experiment: Post-emergence herbicidal action against ABUTH; type: in vivo, Abutilon theophrasti; details: dosage 20 g/ha, visual assessment about 3 weeks after treatment vs untreated controls
Experimental: as §1

SETVI [10] = experiment: Post-emergence herbicidal action against SETVI; type: in vivo, Setaria viridis; details: dosage 20 g/ha
Experimental: as §1

[11] = 80 g/ha, scored visually after 3 weeks vs untreated controls (100% = plants have died, 0% = like control plants)
[12] = 20 g/ha, scored visually after 3 weeks vs untreated controls, 100% = plants have died, 0% = like control plants

Structure (SMILES) | Post-emergence action at 20 g/ha against AMARE in % (AMARE [2]) | Pre-emergence action against AMARE in % (AMARE [4]; [11]) | Pre-emergence action against MATIN in % (MATIN; dosage 80 g/ha) | Post-emergence action against ECHCG in % (ECHCG [6]; dosage 20 g/ha) | Pre-emergence action against ECHCG in % (ECHCG [7]) | Pre-emergence action against AMARE in % (AMARE [4]; [12]) | Pre-emergence action against ABUTH (herbicidal activity) (ABUTH [5]; [11]) | Pre-emergence action against DIGSA in % (DIGSA; dosage 80 g/ha) | further results
Cn1nnnc1NC(=O)c1ccc(C(F)(F)F)c(C(=O)NCC#N)c1Cl [Example 1-140] | 80% | 100% |  |  |  |  |  |  | Post-emergence action against VIOTR in % (VIOTR [1]; 20 g/ha): 80%; Pre-emergence action against VIOTR in % (VIOTR [3]; dosage 80 g/ha): 90%
Cn1nnnc1NC(=O)c1ccc(C(F)(F)F)c(C(=O)Nc2ccccc2)c1Cl [Example 1-143] |  |  |  |  |  |  |  |  | pest or weed control at 80 g/ha (ABUTH [5]; Abutilon theophrasti, 504 h, 80 g/ha, scored visually after 3 weeks vs untreated controls (100% = plants have died, 0% = like control plants)): 100%; pest or weed control at 20 g/ha (MATIN; Tripleurospermum inodorum, 504 h, dosage 20 g/ha): 80%; pest or weed control at 80 g/ha (MATIN; Tripleurospermum inodorum, 504 h, dosage 80 g/ha): 100%; pest or weed control at 80 g/ha (DIGSA; Digitaria sanguinalis, 504 h, dosage 80 g/ha): 80%; pest or weed control at 80 g/ha (AMARE [4]; Amaranthus retroflexus, 504 h, 80 g/ha, scored visually after 3 weeks vs untreated controls, 100% = plants have died, 0% = like control plants): 100%
CSCCNC(=O)c1c(C(F)F)ccc(C(=O)Nc2nnnn2C)c1Cl [Example 1-157] |  | 100% |  |  |  |  |  |  | 
Cn1nnnc1NC(=O)c1ccc(C(F)F)c(C(=O)NCc2cccs2)c1Cl [Example 1-162] | 90% | 100% | 90% | 80% | 100% | 90% |  |  | Pre-emergence action against ALOMY (herbicidal activity) (ALOMY): 90%; Pre-emergence action against SETVI in % (SETVI [8]; dosage 80 g/ha): 80%; Post-emergence action against PHBPU in % (PHBPU): 80%
CCn1nnnc1NC(=O)c1ccc(C(F)F)c(C(=O)NCCSC)c1Cl [Example 2-157] | 90% | 90% |  |  |  |  |  |  | 
CCn1nnnc1NC(=O)c1ccc(C(F)F)c(C(=O)NCc2cccs2)c1Cl [Example 2-162] | 100% | 100% | 90% |  | 80% | 90% |  |  | Pre-emergence action against VIOTR in % (VIOTR [3]; dosage 80 g/ha): 80%
CCn1nnnc1NC(=O)c1ccc(C(F)F)c(C(=O)NCCSC)c1C [Example 2-347] |  |  |  |  |  |  | 100% |  | 
N#CCNC(=O)c1c(C(F)(F)F)ccc(C(=O)Nc2nnco2)c1Cl [Example 5-254] | 80% | 100% |  |  |  |  | 100% |  | Pre-emergence action against VIOTR in % (VIOTR [3]; dosage 80 g/ha): 90%
CNC(=O)c1c(C(F)F)ccc(C(=O)Nc2nnc(C)o2)c1OC [Example 6-49] |  | 100% |  |  |  | 80% |  |  | Post-emergence action against VIOTR in % (VIOTR [1]; 20 g/ha): 80%; Post-emergence action against ABUTH in % (ABUTH [9]): 80%; Pre-emergence action against VIOTR in % (VIOTR [3]; dosage 20 g/ha): 80%; Pre-emergence action against VIOTR in % (VIOTR [3]; dosage 80 g/ha): 80%
CCNC(=O)c1c(C(F)F)ccc(C(=O)Nc2nnc(C)o2)c1OC [Example 6-50] |  | 100% | 80% | 80% |  | 100% | 90% | 100% | Post-emergence action against VIOTR in % (VIOTR [1]; 20 g/ha): 80%; Post-emergence action against ABUTH in % (ABUTH [9]): 80%
COc1c(C(=O)Nc2nnc(C)o2)ccc(C(F)F)c1C(=O)NC1CC1 [Example 6-51] |  | 100% |  | 80% |  | 80% | 100% | 100% | 
CSc1c(C(=O)Nc2nnc(C)o2)ccc(C(F)(F)F)c1C(=O)NC1CC1 [Example 6-60] | 100% | 100% | 90% | 90% | 80% |  | 90% |  | Post-emergence action against ABUTH in % (ABUTH [9]): 90%
CSc1c(C(=O)Nc2nnc(C)o2)ccc(C(F)F)c1C(=O)NC1CC1 [Example 6-76] | 100% | 100% | 90% | 80% |  |  |  |  | Post-emergence action against SETVI in % (SETVI [10]): 80%; Pre-emergence action against SETVI in % (SETVI [8]; dosage 80 g/ha): 80%
Cc1nnc(NC(=O)c2ccc(Br)c(C(=O)NCC3CC3)c2Cl)o1 [Example 6-143] |  | 100% |  |  |  | 100% | 100% | 100% | Pre-emergence action against ABUTH (herbicidal activity in percent) (ABUTH [5]): 100%
Cc1nnc(NC(=O)c2ccc(Br)c(C(=O)NCC(F)(F)F)c2Cl)o1 [Example 6-144] |  | 100% | 80% | 80% | 100% | 90% | 90% | 100% | Pre-emergence action against DIGSA in % (DIGSA; dosage 20 g/ha): 90%; Pre-emergence action against SETVI in % (SETVI [8]; dosage 80 g/ha): 90%
Cc1nnc(NC(=O)c2ccc(C(F)F)c(C(=O)NCC3CC3)c2Br)o1 [Example 6-167] | 100% | 100% | 90% | 80% | 100% | 100% | 100% | 90% | Pre-emergence action against ABUTH (herbicidal activity in percent) (ABUTH [5]): 90%; Pre-emergence action against SETVI in % (SETVI [8]; dosage 20 g/ha): 80%; Pre-emergence action against SETVI in % (SETVI [8]; dosage 80 g/ha): 80%; Pre-emergence action against VIOTR in % (VIOTR [3]; dosage 20 g/ha): 90%; Pre-emergence action against VIOTR in % (VIOTR [3]; dosage 80 g/ha): 100%
Cc1nnc(NC(=O)c2ccc(C(F)(F)F)c(C(=O)NCC(F)F)c2C2CC2)o1 [Example 6-230] | 90% | 100% | 80% |  | 80% | 100% | 90% | 80% | Post-emergence action against PHBPU in % (PHBPU): 80%
CNC(=O)c1c(C(F)F)ccc(C(=O)Nc2nnc(C)o2)c1C1CC1 [Example 6-231] | 90% | 100% | 80% |  |  |  |  | 90% | Post-emergence action against VIOTR in % (VIOTR [1]; 5 g/ha): 90%; Post-emergence action against VIOTR in % (VIOTR [1]; 20 g/ha): 90%; Pre-emergence action against DIGSA in % (DIGSA; dosage 20 g/ha): 80%
Cc1nnc(NC(=O)c2ccc(C(F)F)c(C(=O)NC3CC3)c2C2CC2)o1 [Example 6-233] |  | 80% |  | 80% |  |  |  | 90% | 
Cc1nnc(NC(=O)c2ccc(Br)c(C(=O)NC(C)C3CC3)c2Cl)o1 (stereo not shown) [Example 6-257] |  | 100% | 90% | 90% | 80% |  | 100% | 100% | Pre-emergence action against MATIN in % (MATIN; dosage 20 g/ha): 80%; Post-emergence action against ECHCG in % (ECHCG [6]; dosage 5 g/ha): 80%
Cc1nnc(NC(=O)c2ccc(C(F)F)c(C(=O)NCC(=O)N(C)C)c2Cl)o1 [Example 6-265] |  | 80% |  |  |  |  |  |  | 
Cc1nnc(NC(=O)c2ccc(C(F)F)c(C(=O)Nc3ccccc3)c2Cl)o1 [Example 6-266] | 100% | 100% | 80% |  |  | 90% | 80% |  | Post-emergence action against PHBPU in % (PHBPU): 80%
